Assay results from patent publication EP2163246A1, “Taurine or taurine-like substances for the prevention of the irreversible visual effects of vigabatrin” (INSERM (Institut National de la Santé et de la Recherche …, priority 2008, dated 2010).
“Also recorded” adds a separate entry of the source. Where two headings read alike, the source gives them in different places.

Experiments:
retinal ganglion cells = details: young rats, VGB 0.6 mg/day i.p. 25 days, versus control
Method: Animal treatments: Breeds of Wistar rats Rj Wi IOPS Han were purchased from Janvier (Le Genest-St-lsle, France). VGB dissolved in 0.9% NaCl was administered at 0.6mg/jour (6 mg/ml, 0.1ml) to rats by daily intraperitoneal injection for 25 days from age 4 days.
Histology: Animals were anesthetized by intraperitoneal injection (0.8 to 1.2 ml/kg) of a solution containing ketamine (40 mg/ml) and xylazine (4 mg/ml Rompum). They were then perfused first with heaparin 1000Ul/ml in saline solution (0.9% NaCl), then with fixative containing 4% Paraformaldehyde (Merck chemicals ref. : 100496 ) and 0.2% glutaraldehyde (fluka 25%). Eye cups were isolated and fixed overnight at 4°C in 4% (wt/vol) paraformaldehyde in phosphate buffered saline (PBS; 0.01 M, pH 7.4). The tissue was cryoprotected in successive solutions of PBS containing 10%, 20% and 30% sucrose at 4°C, oriented along the dorso-ventral axis and embedded in OCT (Labonord, Villeneuve d'Ascq, France). […]
For quantification, vertical sections along the dorso-ventral axis were selected at the optic nerve. Brn3A -positive retinal ganglion cells were quantified along the complete retinal section. […]

GABA = details: rats (Neal MJ. et al. 1989; Cubells JF. et al. 1987); cited from earlier work
cone photoreceptors [1] = test: Retinal histology quantification in VGB-treated rats (cone arrestin, GFAP); type: in vivo, Wistar rats Rj Wi IOPS Han
Method: (§1) Sabril IS Investigator and Peer Review Groups. Epilepsia Vol. 37, 638-642 (1996)). […] The primary antibody added to the solution was incubated for two hours at room temperature. Polyclonal antibodies were directed against VGluT1 (1:2000, Chemicon), rabbit GFAP (1/400, Dako, USA) and mouse cone arrestin (Zhu, X., et al. Mouse cone arrestin expression pattern: light induced translocation in cone photoreceptors. Molecular vision Vol. 8, 462-471 (2002)) (Luminaire junior, LUMIj, 1:20,000). Monoclonal antibodies were directed against Goα (1:2000, Chemicon). […] Inner/outer segments of cone photoreceptors were stained with a peanut lectin (PNA, Sigma) during 12 hours of incubation at 4°C. The dye, diamidiphenyl-indole (DAPI), was added during the final incubation period. […] Following DAPI nuclear staining, the lengths of disorganised retinal areas were measured; GFAP immunostaining was used for detection and quantificationof retinal areas with reactive gliosis. The cone photoreceptor density was calculated following cone arrestin immunostaining (rats) or PNA labelling (mice) to visualise the inner/outer segments of cone photoreceptors; areas with disorganised retinal layering were excluded. Areas with sprouting bipolar cells were quantified following immunolabelling of these cells with the antibody directed against the protein Goα.

[2] = rats, VGB 65 days, versus control
Method: VGB was dissolved in 0.9 % NaCl at a concentration of 125 mg/ml. It was administered at 40 mg (125 mg/ml, 0.32 ml) by daily intraperitoneal injection for 45 or 65 days and at 3 mg (60 mg/ml, 0.05 ml) to mice for 29 days (daily dose of about 200 mg/kg in rats and 150 mg/kg in mice). Vitamin B6 (active form) was administered at a dose of 1 mM/kg (solution 154,46 mg/ml) whereas taurine was provided in the drinking water at 0,1 mol/l.
After 65 days of injection, rats were anesthetized for blood sampling. Anesthesia was induced as described above. Under anesthesia an indwelling catheter was placed in the carotid artery. This method allowed obtaining a single, large, good quality blood sample. A 1 mL blood sampling was taken for each rat in a heparinized blood sampler, immediately centrifuged and frozen at -80°C. Automated amino acid ion chromatography (Pasteur Cerba, France) was used for the quantitative determination of total and free amino acids in the samples.
VGB dissolved in 0.9% NaCl was administered at 40mg (125 mg/ml, 0.32ml) to rats by daily intraperitoneal injection for 45 or 65 days and at 3mg (60mg/ml, 0.05ml) to mice for 29 days. […] Taurine supplementation was given in drinking water at a concentration of 0.1M.

[3] = rats (Sills GJ. et al. 2001); cited from earlier work
retina [4] = test system: retina; design: species or system Wistar rats Rj Wi IOPS Han; details: rat, in vivo
Method: (§2) ERG were recorded as described previously after the last VGB injection (Duboc et al., 2004). Anesthesia was induced by an intramuscular injection of a solution containing ketamine (100 mg/kg) and xylazine (10 mg/kg). After 10 min adaptation to a […] light intensity, ten recordings were obtained with flash intensity of 10 cdsm^-2 at an interstimulus interval 30s and subsequently averaged. These photopic ERG measurements were performed after 59 days in rats and 29 days in mice.
(§3) Sabril IS Investigator and Peer Review Groups. Epilepsia Vol. 37, 638-642 (1996)).
(§4) Animals were light-adapted for 10 minutes with a background light of 25 cdm^-2. Light flashes were then applied on this background light; the light intensity of the flash was 10 cdsm^-2 for the mouse experiments and for the rats maintained in darkness (Figs. 2, 6) or 25 cdsm^-2 for other experiments (Figs 3, 5). Ten recordings were averaged with an interstimulus interval of 30s.

cone photoreceptors [5] = test: Retinal histology quantification in VGB-treated mice (DAPI, PNA, Goα); type: in vivo, BALB/c mice
Method: as §1

retina [6] = test: Photopic electroretinogram (ERG) in VGB-treated mice; type: in vivo, BALB/c mice
Method: as §2, §3, §4

[7] = VGB plus taurine versus VGB alone, p<0.001

C=CC(N)CCC(=O)O (stereo not drawn) [VGB, 4-amino-5-hexenoic acid]
decrease of the number of retinal ganglion cells (retinal ganglion cells): 56% | GABA concentrations in the brain relative to control rats (GABA): two-fold higher | GABA concentrations in the retina relative to control rats (GABA): five-fold higher | GFAP immunostaining (cone photoreceptors [1]; VGB alone): increase in GFAP immunostaining | decrease of taurine level in vigabatrin-treated animals ([2]; p<0.05): 67% | difference (reduction) for methionine ([2]; significant): 22% | reduction of glutamic acid in the blood sample ([2]; statistically significant): 56% | concentration in the retina relative to the brain [3]: five-fold higher | photopic ERG amplitude (retina [4]): induced a decrease in the photopic electroretinogram (ERG) measurement | sprouting of bipolar cell dendrites (cone photoreceptors [5]; VGB alone): observed in VGB-treated mice | density of cone outer and inner segments (cone photoreceptors [5]; VGB alone versus control, p<0.001 (Fig. 4C)): lower densities

NCCS(=O)(=O)O [taurine, 2-aminoethanesulfonic acid]
photopic ERG amplitude (retina [6]; mouse, in vivo): the difference was no longer statistically significant between controls and vigabatrin plus taurine supplementation | GFAP immunostaining (cone photoreceptors [1]; [7]): less extensive in animals receiving taurine supplementation than in animals without supplementation | cone segment density (cone photoreceptors [1]; VGB plus taurine versus VGB alone, p<0.05, remained lower than control): greater in the VGB-treated group with taurine supplementation than in animals without supplementation | sprouting of bipolar cell dendrites (cone photoreceptors [5]; VGB plus taurine): completely suppressed | cone density (cone photoreceptors [5]; [7]): prevented this decrease in cone density | disorganisation of the outer nuclear layer (areas of retinal disorganisation) (cone photoreceptors [5]; VGB plus taurine versus VGB alone, p<0.001 (Fig. 4B)): smaller areas of retinal disorganisation than mice without supplementation

Cc1ncc(COP(=O)(O)O)c(C=O)c1O [vitamin B6, pyridoxal-5'-phosphate]
photopic ERG amplitude (retina [6]; mice, VGB plus vitamin B6 (active form) 1 mM/kg (Fig. 1B)): smaller decrease in photopic ERG than with vigabatrin alone; also recorded: reduced the decrease in photopic ERG amplitude
